Tests used:
Experiment in all cases: combination Emax (second highest fraction inhibited in the dose matrix, 72 h); higher = more inhibition; extreme values may be limits of the assay
[1] = tested on: NCI-H1694 (Small Cell Lung Carcinoma)
How it was run: (§1)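 Bliss excess equals the observed combination effect minus the expected value EA + EB − EA·EB, where EA and EB are the effects of each agent alone. Combination Emax is the second-highest inhibition within the matrix. Inhibition was scaled from CellTiter-Glo 2.0 luminescence, with 0 set by vehicle wells and 1 by blank wells, after 72 hours of two-drug dosing of cells plated in 1536-well plates.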

[2] = tested on: NCI-H1299 (Non-Small Cell Lung Carcinoma)
How it was run: as §1

[3] = tested on: OCI-AML2 (Acute Myeloid Leukemia)
How it was run: as §1

[4] = tested on: CAL-78 (Chondrosarcoma)
How it was run: as §1

[5] = tested on: COR-L23 (Non-Small Cell Lung Carcinoma)
How it was run: as §1

[6] = tested on: JiyoyeP-2003 (Burkitt's Lymphoma)
How it was run: as §1

[7] = tested on: CTV-1 (T-Lymphoblastic Leukemia)
How it was run: as §1

[8] = tested on: TE-5 (Esophageal Squamous Cell Carcinoma)
How it was run: as §1

[9] = tested on: MDA-MB-157 (Breast Carcinoma)
How it was run: as §1

[10] = tested on: SW1990 (Pancreatic Carcinoma)
How it was run: as §1

[11] = tested on: KATOIII (Gastric Carcinoma)
How it was run: as §1

[12] = tested on: J82 (Bladder Carcinoma)
How it was run: as §1

[13] = tested on: HPAC (Pancreatic Carcinoma)
How it was run: as §1

[14] = tested on: SW1783 (Low Grade Glioma)
How it was run: as §1

[15] = tested on: SNU-C5 (Colorectal Carcinoma)
How it was run: as §1

[16] = tested on: U-266 (Plasma Cell Myeloma)
How it was run: as §1

[17] = tested on: EM-2 (Chronic Myelogenous Leukemia)
How it was run: as §1

[18] = tested on: NCI-H2595 (Mesothelioma)
How it was run: as §1

[19] = tested on: MFH-ino (Other Solid Carcinomas)
How it was run: as §1

[20] = tested on: SK-N-FI (Neuroblastoma)
How it was run: as §1

| Compound | combination Emax [1] | combination Emax [2] | combination Emax [3] | combination Emax [4] | combination Emax [5] | combination Emax [6] | combination Emax [7] | combination Emax [8] | combination Emax [9] | combination Emax [10] | combination Emax [11] | combination Emax [12] | combination Emax [13] | combination Emax [14] | combination Emax [15] | combination Emax [16] | combination Emax [17] | combination Emax [18] | combination Emax [19] | combination Emax [20] |
| --- | --- | --- | --- | --- | --- | --- | --- | --- | --- | --- | --- | --- | --- | --- | --- | --- | --- | --- | --- | --- |
| NC1(C(=O)N[C@@H](CCO)c2ccc(Cl)cc2)CCN(c2ncnc3[nH]ccc23)CC1 [Capivasertib] + CC(C)n1c(=O)n(C)c2cnc3cc(F)c(-c4ccc(OCCCN5CCCCC5)nc4)cc3c21 [AZD1390] (first compound max 10 µM, 7x7, partner max 0.3 µM) | 0.223 | 0.254 | 0.586 | 0.414 | 0.37 | 0.685 | 0.547 | 0.303 | 0.25 | 0.143 | 0.345 | 0.392 | 0.252 | 0.454 | 0.416 | 0.139 | 0.426 | 0.279 | 0.28 | 0.361 |
| CN(CCO)CC[C@H](CSc1ccccc1)Nc1ccc(S(=O)(=O)NC(=O)c2ccc(N3CCC([C@@H](O)c4ccccc4-c4ccc(Cl)cc4)CC3)cc2)cc1S(=O)(=O)C(F)(F)F [AZD4320] + Cn1cnc2c(F)c(Nc3ccc(Br)cc3Cl)c(C(=O)NOCCO)cc21 [Selumetinib] (first compound max 1 µM, 7x7, partner max 3 µM) | 0.957 | 0.3 | 1 | 0.557 | 0.442 | 0.84 | 0.706 | 0.597 | 0.366 | 0.557 | 0.29 | 0.245 | 0.865 | 0.706 | 0.656 | 0.938 | 0.971 | 0.275 | 0.421 | 0.554 |
| Cc1c2c(nn1C)CSCc1cc(n(C)n1)CSc1cc(c3ccccc3c1)OCCCc1c(C(=O)O)n(C)c3c-2c(Cl)ccc13 [AZD5991] + Cn1cnc2c(F)c(Nc3ccc(Br)cc3Cl)c(C(=O)NOCCO)cc21 [Selumetinib] (first compound max 1 µM, 7x7, partner max 3 µM) | 0.986 | 0.3 | 1 | 0.717 | 0.31 | 0.675 | 0.187 | 0.287 | 0.641 | 0.41 | 0.178 | 0.197 | 0.673 | 0.211 | 0.456 | 0.985 | 0.609 | 0.283 | 0.358 | 0.565 |
| COc1nnc2ccc(N3CCC(c4ccc(OCCN5CCN(C)C(=O)[C@H]5C)cc4)CC3)nn12 [AZD5153] + C[C@@H]1COCCN1C2=NC(=NC(=C2)C3(CC3)[S@](=N)(=O)C)C4=C5C=CNC5=NC=C4 [AZD6738] (first compound max 1 µM, 7x7, partner max 10 µM) | 0.921 | 0.794 | 1 | 0.515 | 0.772 | 0.95 | 0.987 | 0.503 | 0.913 | 0.497 | 0.553 | 0.604 | 0.71 | 0.515 | 0.816 | 0.412 | 0.998 | 0.461 | 0.547 | 0.783 |
| Cc1c2c(nn1C)CSCc1cc(n(C)n1)CSc1cc(c3ccccc3c1)OCCCc1c(C(=O)O)n(C)c3c-2c(Cl)ccc13 [AZD5991] + CC1(C)CCC(CN2CCN(c3ccc(C(=O)NS(=O)(=O)c4ccc(NCC5CCOCC5)c([N+](=O)[O-])c4)c(Oc4cnc5[nH]ccc5c4)c3)CC2)=C(c2ccc(Cl)cc2)C1 [Venetoclax] (first compound max 1 µM, 7x7, partner max 1 µM) | 0.988 | 0.258 | 1 | 0.796 | 0.164 | 0.732 | 0.13 | 0.525 | 0.862 | 0.164 | 0.101 | 0.164 | 0.244 | 0.444 | 0.204 | 0.97 | 0.975 | 0.267 | 0.182 | 0.65 |
| Cc1c2c(nn1C)CSCc1cc(n(C)n1)CSc1cc(c3ccccc3c1)OCCCc1c(C(=O)O)n(C)c3c-2c(Cl)ccc13 [AZD5991] + C=CCn1c(=O)c2cnc(Nc3ccc(N4CCN(C)CC4)cc3)nc2n1-c1cccc(C(C)(C)O)n1 [AZD1775] (first compound max 1 µM, partner max 1 µM) | 0.961 | 0.83 | 1 | 0.853 | 0.605 | 0.987 | 0.925 | 0.536 | 0.958 | 0.537 | 0.237 | 0.314 | 0.857 | 0.322 | 0.732 | 0.99 | 0.983 | 0.282 | 0.31 | 0.744 |
| CCc1c2c(nc3ccc(O)cc13)-c1cc3c(c(=O)n1C2)COC(=O)[C@]3(O)CC [SN-38] + CN(C)CCCOc1ccc(-c2ccc3ncc4c(c3c2)n(C2CCOCC2)c(=O)n4C)cn1 [AZD0156] (first compound max 0.3 µM, 7x7, partner max 1 µM) | 0.968 | 0.529 | 1 | 0.587 | 0.686 | 0.975 | 1 | 0.796 | 0.742 | 0.525 | 0.16 | 0.784 | 0.38 | 0.748 | 0.757 | 0.482 | 0.985 | 0.176 | 0.812 | 0.669 |
| COc1cccc(OCCCN)c1-c1cc(Nc2cnc(C#N)cn2)n[nH]1 [Prexasertib] + O=C(c1cc(Cc2n[nH]c(=O)c3ccccc23)ccc1F)N1CCN(C(=O)C2CC2)CC1 [Olaparib] (first compound max 1 µM, 7x7, partner max 10 µM) | 0.797 | 0.694 | 1 | 0.565 | 0.657 | 0.986 | 0.821 | 0.521 | 0.938 | 0.696 | 0.431 | 0.462 | 0.593 | 0.508 | 0.776 | 0.749 | 1 | 0.23 | 0.45 | 0.889 |
| COc1cccc(OCCCN)c1-c1cc(Nc2cnc(C#N)cn2)n[nH]1 [Prexasertib] + CN(C)CCCOc1ccc(-c2ccc3ncc4c(c3c2)n(C2CCOCC2)c(=O)n4C)cn1 [AZD0156] (first compound max 1 µM, 7x7, partner max 1 µM) | 0.794 | 0.747 | 1 | 0.525 | 0.683 | 0.987 | 0.988 | 0.543 | 0.935 | 0.705 | 0.522 | 0.407 | 0.795 | 0.445 | 0.889 | 0.728 | 0.986 | 0.1 | 0.394 | 0.908 |
| COc1cccc(OCCCN)c1-c1cc(Nc2cnc(C#N)cn2)n[nH]1 [Prexasertib] + C[C@@H]1COCCN1C2=NC(=NC(=C2)C3(CC3)[S@](=N)(=O)C)C4=C5C=CNC5=NC=C4 [AZD6738] (first compound max 1 µM, 7x7, partner max 10 µM) | 0.823 | 0.732 | 1 | 0.604 | 0.685 | 0.981 | 0.948 | 0.548 | 0.949 | 0.695 | 0.586 | 0.522 | 0.769 | 0.496 | 0.894 | 0.65 | 0.994 | 0.141 | 0.572 | 0.915 |
| CC1(C)CCC(CN2CCN(c3ccc(C(=O)NS(=O)(=O)c4ccc(NCC5CCOCC5)c([N+](=O)[O-])c4)c(Oc4cnc5[nH]ccc5c4)c3)CC2)=C(c2ccc(Cl)cc2)C1 [Venetoclax] + COc1cc(Nc2ncc3c(n2)-c2ccc(Cl)cc2C(c2c(F)cccc2OC)=NC3)ccc1C(=O)O [Alisertib] (first compound max 1 µM, 7x7, partner max 10 µM) | 0.667 | 0.385 | 1 | 0.598 | 0.307 | 0.852 | 0.976 | 0.137 | 0.649 | 0.415 | 0.681 | 0.351 | 0.688 | 0.634 | 0.347 | 0.751 | 0.903 | 0.211 | 0.318 | 0.666 |
| COc1cc2c(cc1OCCCCCOc1cc3c(cc1OC)C(=O)N1C=C(C)C[C@H]1C=N3)N=C[C@@H]1CC(C)=CN1C2=O [SG3199] + O=C(c1cc(Cc2n[nH]c(=O)c3ccccc23)ccc1F)N1CCN(C(=O)C2CC2)CC1 [Olaparib] (first compound max 0.001 µM, 7x7, partner max 10 µM) | 0.112 | 0.138 | 0.747 | 0.268 | 0.221 | 0.124 | 0.127 | 0.0521 | 0.0754 | 0.125 | 0.0764 | 0.187 | 0.0597 | 0.0897 | 0.147 | 0.179 | 0.292 | 0.0944 | 0.134 | 0.0819 |

Reference: the supplement of paper PMC11061612
